We go through 9 molecules from PubChem BioAssay (NCI).

The structures appear in SMILES notation.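 In this assay, cells in 96-well plates receive the compound at five concentrations for 48 hours. Endpoints are linearly interpolated between the surrounding concentrations. TGI is the concentration that stops growth completely.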

Among the test systems are A549 NSCLC; ACHN renal; CCRF-CEM leukemia; HOP-62 NSCLC; K-562 leukemia; MALME-3M melanoma; MCF7 breast; MDA-MB-435; PC-3 prostate; RXF 393 renal; SR leukemia; T-47D breast; U251 CNS; UACC-257 melanoma.
What all share (test): NCI-60 cell line screen, 48 h

As for `CN(C(=O)[C@H](NC(=O)OCc1ccccc1)c1ccccc1)C1CCCCC1N1CCCC1` (stereo partly specified), the TGI in the test with A549 NSCLC, in the test with ACHN renal, in the test with CCRF-CEM leukemia, in the test with HOP-62 NSCLC, in the test on K-562 leukemia and in the test with MALME-3M melanoma was over 100 µM throughout. Moreover, the TGI with MCF7 breast is over 100 µM; with MDA-MB-435 it was over 100 µM; in the test on PC-3 prostate, over 100 µM; with RXF 393 renal it was over 100 µM; with SR leukemia, 87.6 µM; with T-47D breast, over 100 µM. Further, the TGI is over 100 µM with U251 CNS and 63.2 µM in the test with UACC-257 melanoma.

Take `OC1(c2ccccc2)CC2CCC(C1)N2CCCC(O)(c1ccccc1)c1ccccc1` (stereo unspecified): the TGI worked out at 34.4 µM in the test on A549 NSCLC; 31.5 µM in the test on ACHN renal; 30.8 µM in the test with CCRF-CEM leukemia; 29 µM in the test on HOP-62 NSCLC; 37.8 µM in the test on K-562 leukemia; 39.1 µM in the test with MALME-3M melanoma. Moreover, the TGI in the test on MCF7 breast was 33.3 µM; in the test with MDA-MB-435 it was 24.8 µM; in the test with PC-3 prostate, 16.2 µM; in the test with RXF 393 renal it was 24.3 µM; with SR leukemia, over 100 µM; in the test on T-47D breast, 50.3 µM. Moreover, the TGI in the test with U251 CNS came out at 28.7 µM; in the test with UACC-257 melanoma, 4 µM.

`C=C1C(=O)OC2C1CCC(=C)C1CC(O)C(=C)C12` (stereo unspecified): the TGI stood at 55.7 µM with A549 NSCLC; 7.99 µM in the test with ACHN renal; 7.44 µM in the test with CCRF-CEM leukemia; 49.8 µM in the test on HOP-62 NSCLC; 21.4 µM in the test with K-562 leukemia; 30.1 µM in the test with MALME-3M melanoma. For the same molecule, the TGI in the test on MCF7 breast was 25.5 µM; with MDA-MB-435 it was 58.8 µM; with PC-3 prostate, 28 µM; in the test on RXF 393 renal, 29.9 µM; with SR leukemia, 10.8 µM; in the test on T-47D breast, 42.8 µM. In addition, the TGI in the test on U251 CNS worked out at 50.3 µM; in the test with UACC-257 melanoma, 27.2 µM.

Turning to `c1ccc(CN2CCC(=NN3CCCCC3)CC2)cc1`, the TGI in the test on A549 NSCLC, in the test on ACHN renal, in the test with CCRF-CEM leukemia, in the test on HOP-62 NSCLC, in the test on K-562 leukemia and in the test on MALME-3M melanoma was over 100 µM in each case. Further, the TGI with MCF7 breast, in the test with MDA-MB-435, in the test with PC-3 prostate, in the test on RXF 393 renal, with SR leukemia and in the test on T-47D breast was over 100 µM each time. The TGI in the test on U251 CNS and in the test on UACC-257 melanoma was over 100 µM each time.

As for `Nc1nc(Cl)cc(NCC2(CO)CCCCC2)n1`, the TGI with A549 NSCLC, in the test on ACHN renal, in the test on CCRF-CEM leukemia, with HOP-62 NSCLC, with K-562 leukemia and with MALME-3M melanoma was over 100 µM throughout. The TGI in the test with MCF7 breast, in the test with MDA-MB-435, with PC-3 prostate, in the test with RXF 393 renal, in the test on SR leukemia and with T-47D breast was over 100 µM in each case. Besides, the TGI in the test with U251 CNS and in the test on UACC-257 melanoma was over 100 µM throughout.

Take `CC(NC(=O)Cc1ccc(OP(=O)(OCc2ccc([N+](=O)[O-])o2)N(C)CCCCCl)cc1)c1ccc(OCC2CCCCC2)c(C(N)=O)c1` (stereo unspecified): the TGI with A549 NSCLC is 4.68 µM; with ACHN renal it was 37.1 µM; in the test with CCRF-CEM leukemia it was 6.14 µM; with HOP-62 NSCLC, 6.07 µM; in the test with K-562 leukemia, 9.23 µM; in the test with MALME-3M melanoma it was 4.42 µM. In addition, the TGI with MCF7 breast turned out to be 6.75 µM; in the test with MDA-MB-435, 3.95 µM; in the test on PC-3 prostate, 19.6 µM; with RXF 393 renal it was 4.74 µM; in the test with SR leukemia, 4.38 µM; with T-47D breast, 3.84 µM. Further, the TGI amounted to 5.28 µM in the test on U251 CNS and 3.27 µM with UACC-257 melanoma.

For `O=Cc1c2c(cc3c1CC1(C3)Cc3cc4c(c(C=O)c3C1)CCCC4)CCCC2`, the TGI with A549 NSCLC is over 31.6 µM; in the test on ACHN renal, over 31.6 µM; with CCRF-CEM leukemia it was 30.2 µM; in the test on HOP-62 NSCLC, over 31.6 µM; in the test with K-562 leukemia, 54.1 µM; with MALME-3M melanoma it was over 31.6 µM. For the same molecule, the TGI with MCF7 breast was over 31.6 µM; in the test on MDA-MB-435, over 31.6 µM; in the test on PC-3 prostate, over 31.6 µM; in the test on RXF 393 renal it was over 31.6 µM; in the test on SR leukemia it was 22.2 µM; with T-47D breast it was over 31.6 µM. For the same molecule, the TGI with U251 CNS and with UACC-257 melanoma was over 31.6 µM each time.

Turning to `COC(=O)C1OC(O[C@H]2CC[C@]3(C)[C@H]4CC=C5[C@@H]6CC(C)(C)CC[C@]6(C(=O)OC)CC[C@@]5(C)[C@]4(C)CC[C@H]3C2(C)C)C(O)C(O)C1O` (stereo partly specified), the TGI with A549 NSCLC was 22.5 µM; in the test on ACHN renal it was 24.2 µM; in the test on CCRF-CEM leukemia, 23.2 µM; in the test with HOP-62 NSCLC, 31.9 µM; in the test on K-562 leukemia, 46.3 µM; with MALME-3M melanoma it was 38.2 µM. Also, the TGI in the test on MCF7 breast turned out to be 29.2 µM; in the test with MDA-MB-435, 30 µM; in the test on PC-3 prostate it was 28.7 µM; with RXF 393 renal, 18.2 µM; with SR leukemia, 14.4 µM; in the test with T-47D breast, 40.9 µM. The TGI with U251 CNS was 25.1 µM; in the test with UACC-257 melanoma it was 35.4 µM.

For `COc1ccccc1C1C2=C(COC2=O)Oc2cc3c(cc21)OCO3` (stereo unspecified), the TGI in the test on A549 NSCLC was over 100 µM; in the test with ACHN renal it was over 100 µM; in the test on CCRF-CEM leukemia it was 16.8 µM; in the test with HOP-62 NSCLC, over 100 µM; in the test with K-562 leukemia, over 100 µM; with MALME-3M melanoma it was over 100 µM. Further, the TGI in the test on MCF7 breast was over 89.9 µM; with MDA-MB-435 it was 0.947 µM; in the test with PC-3 prostate it was over 100 µM; in the test on RXF 393 renal, 6.13 µM; with SR leukemia, over 100 µM; in the test on T-47D breast it was over 100 µM. Moreover, the TGI in the test with U251 CNS and in the test on UACC-257 melanoma was over 100 µM in each case.
